Measurements as given in ChEMBL document CHEMBL5365473, “Novel Sulfonylurea-Based NLRP3 Inflammasome Inhibitor for Efficient Treatment of Nonalcoholic Steatohepatitis, Endotoxic Shock, and Colitis” (J Med Chem, 2023).
Active and inactive are the calls of the source. The calls are words filed in the database; no cut-off is given here.

Key:
Mus musculus [1] = assay: Antiinflammatory activity against MCD diet-induced NASH C57BL/6 mouse model assessed as reduction in liver fibrosis at 40 mg/kg, po administered via gavage for 5 weeks by H and E staining based analysis; format: functional, organism-based
J774.A1 = assay: Effect on NLRP3 protein expression in mouse J774.A1 cells at 3 to 30 nM primed with LPS for 4.5 hrs followed by incubation with compound for 2.5 hrs and later stimulated with ATP for 30 mins by immunoblot analysis; format: functional, cell-based; details: dose 3-30 nM, time 3.0 hrs
[2] = Clearance in ICR mouse at 5 mg/kg, iv by LC-MS/MS analysis; format: ADME, organism-based; details: in vivo
[3] = Toxicity against female ICR mouse assessed as effect on lung weight at 200 to 500 mg/kg administered via gavage for 12 days; format: organism-based; details: in vivo, po, 288 h, dose 200-500 mg/kg, time 12 day
THP-1 [4] = assay: Effect on ROS production in PMA-induced differentiated human THP-1 cells at 30 nM pretreated with compound for 24 hrs followed by stimulation with LPS for 4.5 hrs and ATP for 1 hr by MitoSOX dye based confocal microscopy; format: functional, cell-based; details: time 29.5 hrs
[5] = Toxicity against female ICR mouse assessed as effect on plasma creatinine level at 200 to 500 mg/kg administered via gavage for 12 days; format: organism-based; details: in vivo, po, 288 h, dose 200-500 mg/kg, time 12 day
[6] = Drug uptake in Sprague-Dawley rat jejunum at 50 mg/kg, po measured for 24 hrs by LC-MS/MS analysis; format: ADME, organism-based; details: in vivo
Mus musculus [7] = assay: Antiinflammatory activity against DSS-induced ulcerative colitis C57BL/6 mouse assessed as reduction in massive loss of goblet cells in colon at 10 mg/kg, ip administered for 9 days and measured on day 10 by H and E staining based analysis; format: functional, organism-based; details: time 10.0 day
THP-1 [8] = assay: Effect on mitochondrial function in PMA-induced differentiated human THP-1 cells assessed as effect on extracellular ATP-induced decrease in mitochondrial membrane potential at 30 nM pretreated with compound for 24 hrs followed by stimulation with LPS for 4.5 hrs and ATP for 1 hr by MitoTracker red dye based confocal microscopy; format: functional, cell-based; details: time 29.5 hrs
Mus musculus [9] = assay: Antiinflammatory activity against MCD diet-induced NASH C57BL/6 mouse model assessed as reduction in liver fibrosis at 40 mg/kg, po administered via gavage for 5 weeks by Sirius red staining based analysis; format: functional, organism-based
Hepatocyte = assay: Cytotoxicity against mouse primary hepatic cells assessed as reduction in cell viability at 200 uM measured after 24 hrs by CCK8 assay; format: toxicity, cell-based; details: hepatocytes
[10] = target: T1, Interferon-inducible protein AIM2 (Mus musculus) (UniProt Q91VJ1); assay: Inhibition of AIM2 inflammasome in mouse J774.A1 cells assessed as inhibition of caspase-1 activation at 30 nM primed with LPS for 4.5 hrs followed by incubation with compound for 24 hrs and later stimulated with poly (dA:dT) for 6 hrs by immunoblot analysis; format: cell-based; details: time 30.0 hrs
T1 sequence (whole entry): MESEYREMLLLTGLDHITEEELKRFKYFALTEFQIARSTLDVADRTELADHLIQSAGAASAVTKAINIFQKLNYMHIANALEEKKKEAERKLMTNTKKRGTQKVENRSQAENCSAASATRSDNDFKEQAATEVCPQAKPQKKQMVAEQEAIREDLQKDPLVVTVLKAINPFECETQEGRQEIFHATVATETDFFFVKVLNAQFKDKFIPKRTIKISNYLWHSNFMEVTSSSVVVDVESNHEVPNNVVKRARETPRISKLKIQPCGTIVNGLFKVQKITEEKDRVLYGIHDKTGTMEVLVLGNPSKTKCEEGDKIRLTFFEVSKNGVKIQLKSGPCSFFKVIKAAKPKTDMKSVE

Mus musculus [11] = assay: Antiinflammatory activity against DSS-induced ulcerative colitis C57BL/6 mouse assessed as reduction in colon length shortening at 10 mg/kg, ip administered for 9 days and measured on day 10; format: functional, organism-based; details: time 10.0 day
[12] = Drug uptake in Sprague-Dawley rat heart at 50 mg/kg, po measured for 24 hrs by LC-MS/MS analysis; format: ADME, organism-based; details: in vivo
Mus musculus [13] = assay: Antiinflammatory activity against DSS-induced ulcerative colitis C57BL/6 mouse assessed as reduction in body weight loss at 10 mg/kg, ip administered for 9 days and measured daily; format: functional, organism-based; details: time 9.0 day
Mus musculus [14] = assay: Antiinflammatory activity against MCD diet-induced NASH C57BL/6 mouse model assessed as reduction in liver steatosis at 40 mg/kg, po administered via gavage for 5 weeks by H and E staining based analysis; format: functional, organism-based
Mus musculus [15] = assay: Antiinflammatory activity against MCD diet-induced NASH C57BL/6 mouse model assessed as protection against MCD diet-induced increase in liver to body weight ratio at 40 mg/kg, po administered via gavage for 5 weeks; format: functional, organism-based
[16] = Half life in ICR mouse at 10 mg/kg, po by LC-MS/MS analysis; format: ADME, organism-based; details: in vivo
[17] = Drug uptake in Sprague-Dawley rat liver at 50 mg/kg, po measured for 24 hrs by LC-MS/MS analysis; format: ADME, organism-based; details: in vivo
Mus musculus [18] = assay: Antiinflammatory activity against MCD diet-induced NASH C57BL/6 mouse model assessed as reduction in balloon dilatation in liver at 40 mg/kg, po administered via gavage for 5 weeks by Sirius red staining based analysis; format: functional, organism-based
[19] = target: NACHT, LRR and PYD domains-containing protein 3 (Homo sapiens) (UniProt Q96P20); assay: Inhibition of NLRP3 inflammasome in PMA-induced differentiated human THP-1 cells assessed as inhibition of IL-1 beta secretion primed with LPS for 4.5 hrs followed by incubation with compound for 2.5 hrs and later stimulated with ATP for 1 hr by immunoblot analysis; format: cell-based; details: dose 3-30 nM, time 3.5 hrs
Sequence of NACHT, LRR and PYD domains-containing protein 3 (Homo sapiens) (Q96P20 whole entry, the tested form may be a part): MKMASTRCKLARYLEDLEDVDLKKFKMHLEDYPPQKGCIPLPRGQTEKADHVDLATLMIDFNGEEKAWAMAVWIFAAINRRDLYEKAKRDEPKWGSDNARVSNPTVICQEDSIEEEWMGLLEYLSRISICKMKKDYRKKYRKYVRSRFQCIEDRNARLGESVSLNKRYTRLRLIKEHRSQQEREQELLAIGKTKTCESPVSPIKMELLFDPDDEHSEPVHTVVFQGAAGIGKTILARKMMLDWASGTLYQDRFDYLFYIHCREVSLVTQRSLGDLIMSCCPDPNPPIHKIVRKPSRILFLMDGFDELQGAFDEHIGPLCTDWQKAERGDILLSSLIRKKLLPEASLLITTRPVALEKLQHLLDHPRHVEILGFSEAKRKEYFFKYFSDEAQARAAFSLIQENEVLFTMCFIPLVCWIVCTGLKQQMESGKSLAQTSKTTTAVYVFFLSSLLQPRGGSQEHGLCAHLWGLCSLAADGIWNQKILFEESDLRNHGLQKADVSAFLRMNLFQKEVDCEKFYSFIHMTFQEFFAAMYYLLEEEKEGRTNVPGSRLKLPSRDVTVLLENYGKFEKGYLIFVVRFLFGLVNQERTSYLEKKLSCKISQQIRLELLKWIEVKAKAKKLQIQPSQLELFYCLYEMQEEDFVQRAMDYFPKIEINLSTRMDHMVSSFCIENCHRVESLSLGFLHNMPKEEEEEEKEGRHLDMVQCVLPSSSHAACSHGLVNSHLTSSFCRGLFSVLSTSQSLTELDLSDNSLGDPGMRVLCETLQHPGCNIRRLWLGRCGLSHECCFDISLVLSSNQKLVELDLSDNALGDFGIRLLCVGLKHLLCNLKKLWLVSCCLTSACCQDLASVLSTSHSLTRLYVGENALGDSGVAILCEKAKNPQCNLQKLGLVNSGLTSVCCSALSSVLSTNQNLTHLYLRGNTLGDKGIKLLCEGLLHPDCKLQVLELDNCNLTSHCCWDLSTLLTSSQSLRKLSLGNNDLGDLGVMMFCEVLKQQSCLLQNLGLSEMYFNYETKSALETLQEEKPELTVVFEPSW

[20] = Drug uptake in Sprague-Dawley rat lungs at 50 mg/kg, po measured for 24 hrs by LC-MS/MS analysis; format: ADME, organism-based, Lung; details: in vivo
[21] = Half life in ICR mouse at 5 mg/kg, iv by LC-MS/MS analysis; format: ADME, organism-based; details: in vivo
[22] = MRT (0 to infinity) in ICR mouse at 10 mg/kg, po by LC-MS/MS analysis; format: ADME, organism-based; details: in vivo
Mus musculus [23] = assay: Antiinflammatory activity against LPS-induced lethal septic shock C57BL/6 mouse model assessed as reduction in serum IL-1 beta level at 20 to 40 mg/kg, ip administered for 1 hr prior to LPS challenge and measured after 2.5 hrs by ELISA; format: functional, organism-based; details: dose 20-40 mg/kg, time 3.5 hrs
[24] = Cmax in ICR mouse at 5 mg/kg, iv by LC-MS/MS analysis; format: ADME, organism-based; set-up: dose 5 mg/kg, route iv; details: in vivo
Mus musculus [25] = assay: Antiinflammatory activity against MCD diet-induced NASH C57BL/6 mouse model assessed as improvement in liver morphology at 40 mg/kg, po administered via gavage for 5 weeks by Sirius red staining based analysis; format: functional, organism-based
Mus musculus [26] = assay: Antiinflammatory activity against LPS-induced lethal septic shock C57BL/6 mouse model assessed as increase in animal's survival rate at 20 mg/kg, ip administered for 1 hr prior to LPS challenge and measured for 72 hrs; format: functional; details: time 73 hrs
[27] = Oral bioavailability in ICR mouse at 10 mg/kg by LC-MS/MS analysis; format: ADME, organism-based; details: in vivo
[28] = Toxicity against female ICR mouse assessed as effect on brain weight at 200 to 500 mg/kg administered via gavage for 12 days; format: organism-based; details: in vivo, po, 288 h, dose 200-500 mg/kg, time 12 day

Structure (SMILES): CN(C)Cc1ccc(S(=O)(=O)NC(=O)Nc2c3c(cc4c2CCC4)CCC3)cc1
- Activity (Mus musculus [1]): Active
- Activity (J774.A1): inactive
- clearance [2]: 0.647 mL/min/kg
- Activity [3]: Non-Toxic
- Activity (THP-1 [4]): inactive
- Activity [5]: Non-Toxic
- Drug uptake [6]: Active
- Activity (Mus musculus [7]): Active
- Activity (THP-1 [8]): inactive
- Activity (Mus musculus [9]): Active
- Activity (Hepatocyte): Non-Toxic
- inhibition [10]: inactive
- Activity (Mus musculus [11]): Active
- Drug uptake [12]: Active
- Activity (Mus musculus [13]): Active
- Activity (Mus musculus [14]): Active
- Activity (Mus musculus [15]): Active
- half-life [16]: 3.5 h
- Drug uptake [17]: Active
- Activity (Mus musculus [18]): Active
- inhibition [19]: Dose-Dependent Effect
- Drug uptake [20]: Active
- half-life [21]: 4.01 h
- MRT inf [22]: 4.79 h
- Activity (Mus musculus [23]): Active
- Cmax [24]: 22600 ng/mL
- Activity (Mus musculus [25]): Active
- survival at 20 mg/kg (Mus musculus [26]): 20%
- bioavailability [27]: 85.2%
- Activity [28]: Non-Toxic
